Assay results as given in US9937192B2, “Combination therapy to treat mycobacterium diseases” (priority 2012, dated 2018).
≈ marks a conversion by molar mass, not a printed value. Read-outs that look alike come from different tables or passages of the source.

Columns and labels:
[1] = Oral Range Finding Toxicity and Toxicokinetic Study in Male Cynomolgus Monkeys; assay type: in vivo, Cynomolgus monkeys (Macaca Fascicularis)
Description: An Oral Range Finding Toxicity and Toxicokinetic Study in Male Cynomolgus Monkeys
The first day of dosing was designated as Day 1 of the study. The actual volume administered to each animal was calculated and adjusted based on the most recent body weight of each animal.
Cage-side clinical signs (ill health, behavioral changes etc.) were recorded at least once daily during the study.
Body weights were recorded for all animals prior to group assignment and on Days 1 (prior to dosing), 3 and 7 as well as terminally prior to necropsy (fasted).
Electrocardiograms (bipolar limb leads I, II and III, and augmented unipolar leads aVR, aVL and aVF) were obtained for all monkeys once during the pre-treatment period and again on Day 7 (post-dosing).
The tracings were assessed for gross changes indicative of cardiac electrical dysfunction. The potential presence of abnormalities involving heart rate (lead II), sinus and atrioventricular rhythm or conductivity were determined. Heart rate, PR interval, QRS duration, QT and QTc intervals values were measured.
A series of 7 blood samples (approximately 0.5 mL each) were collected from each monkey on Days 1 and 7 at the following time points: predose, 30 minutes and 2, 3, 6, 12 and 24 hours post-dose. For this purpose, each monkey was bled by venipuncture and the samples were collected into tubes containing the anticoagulant, K2EDTA. Tubes were placed on wet ice until ready for processing.
Laboratory investigations (hematology, coagulation, clinical chemistry and urinalysis) were performed on all animals prior to start of treatment and prior to termination on Day 8.
A necropsy with tissue collection was conducted on all animals terminated during the study. The necropsy included examination of: • carcass and muscular/skeletal system; • all external surfaces and orifices; • cranial cavity and external surface of the brain; • neck with associated organs and tissues; and • thoracic, abdominal, and pelvic cavities with their associated organs and tissues. All abnormalities were described and recorded.
For all animals, all tissues indicated above were embedded in paraffin, sectioned and stained with hematoxylin and eosin and examined by light microscopy.

[2] = Rat IV Study (pharmacokinetics); details: male Sprague Dawley rats, plasma analyte = label
Aqueous Solubility Study = assay type: physicochemical; details: water, aqueous buffer, thermodynamic from solid, crystalline solid form, pH >3.0, 96 hours at room temperature
Description: The aqueous solubilities of compound 23 and compound W were determined according to the following procedure.
Aqueous samples of each compound were prepared as follows. Compounds were weighed (20-30 mg compound) in 4 ml clear vials prior to adding water (0.5 mL) and stirring by magnetic stirrer. 1.0N HCl was added to the suspension to adjust the pH to the desired range. After stirring for 96 hours at room temperature, the suspension was filtered through a 0.22 micron filter (Millipore, Ultrafree centrifugal filters, Durapore PVDF 0.22 μm, Cat# UFC30GVNB). The filtrate was collected and the pH measured with a pH meter.
Standard solutions of each compound were prepared according to the following procedure. […]
Aliquots of each sample and each standard solution were analyzed by HPLC analysis (Agilent 1100, injection volume 10 μL, wavelength 271 nm, column XTerra® Phenyl 5 μm, 4.6×50 mm, Part No. 186001144, mobile phase: A: 0.1% TFA in water 0.1% TFA in AcN). […] Standard curves were obtained by plotting the average of the peak area from the HPLC versus the concentrations of the standard solutions (with appropriate corrections of the weights of the standards based on total water content of the solid as determined by elemental analysis). The concentration of each sample was calculated from the peak area of the aqueous sample from the HPLC results and the slope and intercept of the standard curves. […]

M. tuberculosis = assay: microbe, parasite or virus in culture; assay type: cell-based
[3] = system: nonreplicating M. tuberculosis; assay: Low-Oxygen-Recovery Assay (LORA) MIC; assay type: cell-based; details: Mycobacterium tuberculosis, read-out: LORA MIC
Source text: MIC Determination in the Low-Oxygen-Recovery Assay (LORA) for Nonreplicating M. tuberculosis
Screening for new antimicrobial agents is routinely conducted only against actively replicating bacteria. However, it is now widely accepted that a physiological state of non-replicating persistence (NRP) is responsible for antimicrobial tolerance in many bacterial infections. In tuberculosis, the key to shortening the 6-month regimen lies in targeting this NRP subpopulation. […] Cho S H, Want S, Wan B, Hwang C H, Pauli G F, Franzblau S G; “Low-Oxygen-Recovery Assay for High-Throughput Screening of Compounds against Nonreplicating Mycobacterium tuberculosis” Antimicrob Agents Chemother. 2007 April; 51(4): 1380-1385 doi: 10.1128/AAC.00055-06.

[4] = system: intracellular M. tuberculosis in THP-1 cells; assay: microbe, parasite or virus in culture; assay type: cell-based; details: Mycobacterium tuberculosis, H37RA; for IC50: THP-1, 120 h, read-out: Mtb H37Ra in THP1 Cells (IC50); for MIC: read-out: MIC, Macrophage Cells
[5] = system: intracellular M. tuberculosis in J774 cells; assay: Efficacy against intracellular M. tuberculosis (luciferase) in J774 cells; assay type: cell-based
M. kansasii = assay: MIC in bacterial broth culture (7H9 with ADC, visual or resazurin); assay type: cell-based; details: Mycobacterium kansasii, Table 31, duplicate values
M. tuberculosis Erdman = assay: MBC assay, log killing reduction in CFU over a one month period of incubation (Table 35); assay type: cell-based; details: Compound 23A at 4×MIC
[6] = system: Non-Replicating (NRP) M. tuberculosis H37Ra; assay: Non-replicating (NRP) M. tuberculosis H37Ra (luciferase) culture assay; assay type: cell-based; details: Mycobacterium tuberculosis, 336 h, read on day 14
M. tuberculosis H37Rv [7] = details: cited from earlier work
M. tuberculosis H37Rv [8] = assay: Monotherapy against established TB in mice (dose-ranging activity study); assay type: in vivo; details: BALB/c mice, M. tuberculosis H37Rv, 150 mg/kg daily 5 days per week
[9] = doses up to 200 mg/kg/day for 7 days
[10] = Compound W dosed IV bolus 1 mg/kg in D5W
[11] = Compound W dosed IV bolus 5 mg/kg in D5W
[12] = Mycobacterium tuberculosis, H37RA, read-out: MIC, Broth

CCNC(=O)Nc1nc2cc(-c3cnc(C(C)(C)O)nc3)c(F)c([C@H]3CCCO3)c2[nH]1 [Compound 23, 1-ethyl-3-[6-fluoro-5-[2-(1-hydroxy-1-methyl-ethyl)pyrimidin-5-yl]-7-[(2R)-tetrahydrofuran-2-yl]-1H-benzimidazol-2-yl]urea]
clinical signs, body weights, electrocardiography, clinical pathology, organ weights [1, 9]: no clinical signs, or changes in body weights, electrocardiography parameters, clinical pathology parameters, or organ weights | macroscopic or microscopic findings [1, 9]: no macroscopic or microscopic findings | no observed effect level (NOEL) ([1]; oral gavage once per day for 7 days): 200 mg/kg/day | exposures for different dosage levels ([1]; toxicokinetics): dose related | AUCextrap [2, 10]: 310 ng·h/mL | Cl_obs [2, 10]: 54.9 mL/min/kg | Vss_obs [2, 10]: 3.8 L/kg | AUCextrap [2, 11]: 3060 ng·h/mL | Cl_obs [2, 11]: 27.3 mL/min/kg | Vss_obs [2, 11]: 4.08 L/kg | solubility at 96 h (Aqueous Solubility Study): < 1 µg/mL

COc1c(N2CCNC(C)C2)c(F)cc2c(=O)c(C(=O)O)cn(C3CC3)c12 (centres unmarked) [Gatifloxacin, 1-cyclopropyl-6-fluoro-8-methoxy-7-(3-methylpiperazin-1-yl)-4-oxo-quinoline-3-carboxylic acid]
Erdman (MIC) (M. tuberculosis): 0.25 µg/mL | MIC [3]: 3.6 µg/mL (≈ 9.59 µM) | IC50 [4]: 0.2 µg/mL (≈ 0.533 µM) | IC50 ([5]; Mycobacterium tuberculosis, J774, 120 h, read-out: Mtb CDC1551 in J774 Cells (IC50)): 0.94 µg/mL (≈ 2.5 µM)

COc1c(N2C[C@@H]3CCCN[C@@H]3C2)c(F)cc2c(=O)c(C(=O)O)cn(C3CC3)c12 [Moxifloxacin, 1-cyclopropyl-7-[(1S,6S)-2,8-diazabicyclo [4.3.0]non-8-yl]-6-fluoro-8-methoxy-4-oxo-quinoline-3-carboxylic acid]
MIC (M. kansasii; M. kansasii 303): 0.03 µg/mL (≈ 0.0747 µM) | MIC (M. kansasii; M. kansasii 316): 0.03 µg/mL (≈ 0.0747 µM) | MIC (M. kansasii; M. kansasii 379): 0.03 µg/mL (≈ 0.0747 µM) | MIC (M. tuberculosis; Mycobacterium tuberculosis, ERDMAN, Table 31, Mtb Erdman, duplicate values, read-out: MIC): 0.03 µg/mL (≈ 0.0747 µM) | MIC (M. tuberculosis; Mycobacterium tuberculosis, ERDMAN, Table 32, M. tuberculosis Erdman, […], duplicate values, read-out: MIC): 0.03 µg/mL (≈ 0.0747 µM) | MIC (M. tuberculosis; Mycobacterium tuberculosis, ERDMAN, Table 33, M. tuberculosis strain Erdman, read-out: MIC): 0.03 µg/mL (≈ 0.0747 µM) | MIC (M. tuberculosis; Mycobacterium tuberculosis, GN9, Table 31, Mtb GN9, duplicate values, read-out: MIC): 0.03 µg/mL (≈ 0.0747 µM) | MIC (M. tuberculosis; Mycobacterium tuberculosis, GN9, Table 33, M. tuberculosis strain GN9, read-out: MIC): 0.03 µg/mL (≈ 0.0747 µM) | MIC (M. tuberculosis; [12]): 0.12 µg/mL (≈ 0.299 µM) | MIC (M. tuberculosis; Mycobacterium tuberculosis, H37RV, Table 31, Mtb H37Rv, duplicate values, read-out: MIC): 0.03 µg/mL (≈ 0.0747 µM) | MIC (M. tuberculosis; Mycobacterium tuberculosis, H37RV, Table 33, M. tuberculosis strain H37Rv, read-out: MIC): 0.06 µg/mL (≈ 0.149 µM) | MIC (M. tuberculosis; Mycobacterium tuberculosis, Table 31, Mtb CDC1551, duplicate values, read-out: MIC): 0.015 µg/mL (≈ 0.0374 µM) | MIC (M. tuberculosis; Mycobacterium tuberculosis, Table 31, Mtb HN878 (Beijing-Type), duplicate values, read-out: MIC): 0.03 µg/mL (≈ 0.0747 µM) | MIC (M. tuberculosis; Mycobacterium tuberculosis, Table 32, […], duplicate values, read-out: MIC): 8 µg/mL (≈ 19.9 µM) | MIC (M. tuberculosis; Mycobacterium tuberculosis, Table 33, M. tuberculosis strain 210, read-out: MIC): 0.015 µg/mL (≈ 0.0374 µM) | MIC (M. tuberculosis; Mycobacterium tuberculosis, Table 33, M. tuberculosis strain AH13, read-out: MIC): 0.5 µg/mL (≈ 1.25 µM) | MIC (M. tuberculosis; Mycobacterium tuberculosis, Table 33, M. tuberculosis strain AH517, read-out: MIC): 0.03 µg/mL (≈ 0.0747 µM) | MIC (M. tuberculosis; Mycobacterium tuberculosis, Table 33, M. tuberculosis strain BW9, read-out: MIC): 0.008 µg/mL (≈ 0.0199 µM) | MIC (M. tuberculosis; Mycobacterium tuberculosis, Table 33, M. tuberculosis strain C913, read-out: MIC): 0.03 µg/mL (≈ 0.0747 µM) | MIC (M. tuberculosis; Mycobacterium tuberculosis, Table 33, M. tuberculosis strain CDC1551, read-out: MIC): 0.03 µg/mL (≈ 0.0747 µM) | MIC (M. tuberculosis; Mycobacterium tuberculosis, Table 33, M. tuberculosis strain H10460, read-out: MIC): 0.25 µg/mL (≈ 0.623 µM) | MIC (M. tuberculosis; Mycobacterium tuberculosis, Table 33, M. tuberculosis strain H13571, read-out: MIC): 0.03 µg/mL (≈ 0.0747 µM) | MIC (M. tuberculosis; Mycobacterium tuberculosis, Table 33, M. tuberculosis strain HH915336, read-out: MIC): 0.015 µg/mL (≈ 0.0374 µM) | MIC (M. tuberculosis; Mycobacterium tuberculosis, Table 33, M. tuberculosis strain LL, read-out: MIC): 0.015 µg/mL (≈ 0.0374 µM) | MIC (M. tuberculosis; Mycobacterium tuberculosis, Table 33, M. tuberculosis strain MC19062, read-out: MIC): 0.015 µg/mL (≈ 0.0374 µM) | MIC (M. tuberculosis; Mycobacterium tuberculosis, Table 33, M. tuberculosis strain Rv ATCC, read-out: MIC): 0.06 µg/mL (≈ 0.149 µM) | MIC (M. tuberculosis; Mycobacterium tuberculosis, Table 33, M. tuberculosis strain W10, read-out: MIC): 0.03 µg/mL (≈ 0.0747 µM) | MIC (M. tuberculosis; Mycobacterium tuberculosis, Table 33, M. tuberculosis strain W33, read-out: MIC): 0.5 µg/mL (≈ 1.25 µM) | MIC (M. tuberculosis; Mycobacterium tuberculosis, Table 33, M. tuberculosis strain Wg565, read-out: MIC): 1 µg/mL (≈ 2.49 µM) | MIC (M. tuberculosis; Table 31, Mtb GN9, duplicate values): 0.015 µg/mL (≈ 0.0374 µM) | MIC (M. tuberculosis; Table 31, Mtb HN878 (Beijing-Type), duplicate values): 0.015 µg/mL (≈ 0.0374 µM) | MIC (M. tuberculosis; Table 32, M. tuberculosis Erdman, […], duplicate values): 0.015 µg/mL (≈ 0.0374 µM) | MIC (M. tuberculosis; Table 32, […], duplicate values): 4 µg/mL (≈ 9.96 µM) | Erdman (MIC) (M. tuberculosis; Table 36, Mtb Erdman, unit inferred): 0.03 µg/mL | MIC [3]: > 40 µg/mL | Log Reduction (cfu) (M. tuberculosis Erdman; day 0 of incubation): 0 Log | Log Reduction (cfu) (M. tuberculosis Erdman; day 1 of incubation): 0.4 Log | Log Reduction (cfu) (M. tuberculosis Erdman; day 2 of incubation): 1.6 Log | Log Reduction (cfu) (M. tuberculosis Erdman; day 3 of incubation): 2.8 Log | Log Reduction (cfu) (M. tuberculosis Erdman; day 7 of incubation): 2.2 Log | Log Reduction (cfu) (M. tuberculosis Erdman; day 14 of incubation): 1.4 Log | Log Reduction (cfu) (M. tuberculosis Erdman; day 21 of incubation): 0.0 Log | Log Reduction (cfu) (M. tuberculosis Erdman; day 28 of incubation): 0.2 Log | IC50 [4]: 0.33 µg/mL (≈ 0.822 µM) | MIC [4]: 0.33 µg/mL (≈ 0.822 µM) | IC50 [6]: 6 µg/mL (≈ 14.9 µM) | IC50 ([5]; Mycobacterium tuberculosis, J774, 120 h; read-out: Mtb CDC1551 in J774 Cells (IC50)): 0.21 µg/mL (≈ 0.523 µM)

NC(=O)c1cnccn1 [Pyrazinamide, pyrazine-2-carboxamide]
MIC (M. tuberculosis; [12]): > 12.3 µg/mL | MIC (M. tuberculosis H37Rv [7]; M. tuberculosis H37Rv, normal pH): 250 µg/mL (≈ 2030 µM) | MIC (M. tuberculosis H37Rv [7]; pH 6.0): 50 µg/mL (≈ 406 µM) | Log cfu (lung) (M. tuberculosis H37Rv [8]; 4 weeks of treatment): 4.22 | Log Reduction (M. tuberculosis H37Rv [8]; 4 weeks, vs untreated control): 1.78 | MIC [4]: > 2.5 µg/mL
